Laboratory results as given in patent US7202196B2, “Selective herbicide comprising a tetrazolinone derivative” (Bayer Cropscience AG, priority 2001, dated 2007).

Tests used:
Type in all cases: in vivo
[1] = system: Paddy rice (Oryza sp.); experiment: Example A: test in sown rice (Brazil), damage to rice; settings: fentrazamide 250 EC 400 g a.i./ha; spray at 1-2-leaf stage of the rice, 10 days after sowing; scored 3 weeks after application; outdoor test Brazil 1999
Excerpt: (§1) To prepare a spray preparation, the active compound preparations are mixed with water. The concentration is adjusted so that the application rate corresponds to 200 l of water/ha.
(§2) Rice seeds are sown in test plots (2 m×5 m) in rice paddies. 10 days after sowing (when the rice has reached the 1-2-leaf stage), the spray preparation is applied to the test areas (using a hand-operated sprayer). 1 month after the treatment, the soil is flooded to a water depth of 5 cm; the standing water levels are kept constant.
(§3) 3 weeks after the active compound application, the degree of damage to the rice plants and the herbicidal effect on the emerged weeds of the species Aeschynomene rudis is scored visually in percent in comparison to an untreated control.
(§4) The figures denote: • 0%=no action/damage (like untreated control) • 100%=total destruction

[2] = system: Brachiaria plantaginea; experiment: Example D: test in sown rice (Brazil), herbicidal effect; settings: fentrazamide 250 EC 300 g a.i./ha; spray at BBCH 23 stage of the rice, 29 days after sowing; scored 2 weeks after application; outdoor test Brazil 1999
Excerpt: as §1
as §2, with “29” for “10”, “(during” for “(when”, “BBCH 23 development stage of” for “rice has reached”, “rice; begin of stocking),” for “1-2-leaf stage),”, “A few days” for “1 month”
(§5) 2 weeks after the active compound application, the degree of damage to the rice plants and the herbicidal effect on the emerged weeds Echinochloa crus-galli and Brachiaria plantaginea is scored visually in percent in comparison to an untreated control.
as §4

[3] = system: Echinochloa crus-galli; experiment: as above; settings: fentrazamide 250 EC 300 g a.i./ha; spray at BBCH 23 stage of the rice, 29 days after sowing; scored 2 weeks after application; outdoor test Brazil 1999
Excerpt: as §1
as §2, with “29” for “10”, “(during” for “(when”, “BBCH 23 development stage of” for “rice has reached”, “rice; begin of stocking),” for “1-2-leaf stage),”, “A few days” for “1 month”
as §5, §4

[4] = system: Paddy rice (Oryza sp.); experiment: Example E: test in sown rice (Brazil), damage to rice; settings: fentrazamide 250 EC 300 g a.i./ha; spray at BBCH 23 stage of the rice, 29 days after sowing; scored 2 weeks after application; outdoor test Brazil 1999
Excerpt: as §1
as §2, with “29” for “10”, “(during” for “(when”, “BBCH 23 development stage of” for “rice has reached”, “rice; begin of stocking),” for “1-2-leaf stage),”, “A few days” for “1 month”
as §5, §4

[5] = system: Paddy rice (Oryza sp.); experiment: Example B: test in sown rice (Brazil), damage to rice; settings: fentrazamide 250 EC 300 g a.i./ha; spray at BBCH 23 stage of the rice, 29 days after sowing; scored 2 weeks after application; outdoor test Brazil 1999
Excerpt: as §1
as §2, with “29” for “10”, “(during” for “(when”, “BBCH 23 development stage of” for “rice has reached”, “rice; begin of stocking),” for “1-2-leaf stage),”, “A few days” for “1 month”
as §5, §4

[6] = system: Paddy rice (Oryza sp.); experiment: Example G: test in sown rice (Philippines), damage to rice; settings: fentrazamide 50 WP 135 g a.i./ha; spray 11 days after sowing (4-leaf-stage); scored 8 weeks after application; outdoor test Philippines 1999
Excerpt: as §1
as §2, with “(2.5 m×2.5” for “(2 m×5”, “11” for “10”, “(4-leaf-stage of” for “(when”, “rice),” for “rice has reached the 1-2-leaf stage),”, “day” for “month”
(§6) 8 weeks after the active compound application, the degree of damage to the rice plants and the herbicidal effect on the emerged weeds of the species Echinochloa crus-galli is scored visually in percent in comparison to an untreated control.
as §4

[7] = system: Brachiaria plantaginea; experiment: Example B: test in sown rice (Brazil), herbicidal effect; settings: fentrazamide 250 EC 300 g a.i./ha; spray at BBCH 23 stage of the rice, 29 days after sowing; scored 2 weeks after application; outdoor test Brazil 1999
Excerpt: as §1
as §2, with “29” for “10”, “(during” for “(when”, “BBCH 23 development stage of” for “rice has reached”, “rice; begin of stocking),” for “1-2-leaf stage),”, “A few days” for “1 month”
as §5, §4

[8] = system: Echinochloa crus-galli; experiment: as above; settings: fentrazamide 250 EC 300 g a.i./ha; spray at BBCH 23 stage of the rice, 29 days after sowing; scored 2 weeks after application; outdoor test Brazil 1999
Excerpt: as §1
as §2, with “29” for “10”, “(during” for “(when”, “BBCH 23 development stage of” for “rice has reached”, “rice; begin of stocking),” for “1-2-leaf stage),”, “A few days” for “1 month”
as §5, §4

[9] = system: Paddy rice (Oryza sp.); experiment: Example D: test in sown rice (Brazil), damage to rice; settings: fentrazamide 250 EC 300 g a.i./ha; spray at BBCH 23 stage of the rice, 29 days after sowing; scored 2 weeks after application; outdoor test Brazil 1999
Excerpt: as §1
as §2, with “29” for “10”, “(during” for “(when”, “BBCH 23 development stage of” for “rice has reached”, “rice; begin of stocking),” for “1-2-leaf stage),”, “A few days” for “1 month”
as §5, §4

[10] = system: Aeschynomene rudis; experiment: Example A: test in sown rice (Brazil), herbicidal effect; settings: fentrazamide 250 EC 400 g a.i./ha; spray at 1-2-leaf stage of the rice, 10 days after sowing; scored 3 weeks after application; outdoor test Brazil 1999
Excerpt: as §1, §2, §3, §4

[11] = system: Mountain rice (Oryza sp.); experiment: Example F: test in sown rice (Brazil), damage to rice; settings: fentrazamide 250 EC 300 g a.i./ha; spray at BBCH 12 stage of the rice (2-leaf-stage), 18 days after sowing; scored 3 weeks after application; outdoor test Brazil 1999
Excerpt: as §1
Rice seeds are sown in test plots (2 m×5 m) in rice paddies. 18 days after sowing (during the BBCH 12 development stage of the rice; corresponds to the 2-leaf-stage), the spray preparation is applied to the test areas (using a hand-operated sprayer).
3 weeks after the active compound application, the degree of damage to the rice plants and the herbicidal effect on the emerged weeds Acanthospermum hispidum, Commelina benghalensis, Digitaria sanguinalis and Eleusine indica is scored visually in percent in comparison to an untreated control.
as §4

[12] = system: Echinochloa crus-galli; experiment: Example G: test in sown rice (Philippines), herbicidal effect; settings: fentrazamide 50 WP 135 g a.i./ha; spray 11 days after sowing (4-leaf-stage); scored 8 weeks after application; outdoor test Philippines 1999
Excerpt: as §1
as §2, with “(2.5 m×2.5” for “(2 m×5”, “11” for “10”, “(4-leaf-stage of” for “(when”, “rice),” for “rice has reached the 1-2-leaf stage),”, “day” for “month”
as §6, §4

[13] = system: Brachiaria plantaginea; experiment: Example E: test in sown rice (Brazil), herbicidal effect; settings: fentrazamide 250 EC 300 g a.i./ha; spray at BBCH 23 stage of the rice, 29 days after sowing; scored 2 weeks after application; outdoor test Brazil 1999
Excerpt: as §1
as §2, with “29” for “10”, “(during” for “(when”, “BBCH 23 development stage of” for “rice has reached”, “rice; begin of stocking),” for “1-2-leaf stage),”, “A few days” for “1 month”
as §5, §4

## CCN(C(=O)n1nnn(-c2ccccc2Cl)c1=O)C1CCCCC1 [(A), 4-(2-chlorophenyl)-N-cyclohexyl-N-ethyl-4,5-dihydro-5-oxo-1H-tetrazole-1-carboxamide]
[1]
  Damage or action in % Paddy rice (Oryza sp.) found: 0%
[2]
  Damage or action in % Brachiaria plantaginea found: 10%
[3]
  Damage or action in % Echinochloa crus-galli found: 35%
[4]
  Damage or action in % Paddy rice (Oryza sp.) found: 0%
[5]
  Damage or action in % Paddy rice (Oryza sp.) found: 0%
[6]
  Damage or action in % Paddy rice (Oryza sp.) found: 0%
[7]
  Damage or action in % Brachiaria plantaginea found: 10%
[8]
  Damage or action in % Echinochloa crus-galli found: 35%
[9]
  Damage or action in % Paddy rice (Oryza sp.) found: 0%
[10]
  Damage or action in % Aeschynomene rudis found: 30%
[11]
  Damage or action in % Mountain rice (Oryza sp.) found: 0%
[12]
  Damage or action in % Echinochloa crus-galli found: 78%
[13]
  Damage or action in % Brachiaria plantaginea found: 10%
